Source: the supplement of paper PMC10307832

Key:
Experiment in all cases: relative viability (nuclei count vs DMSO), 5 days (fraction); higher = more cells survive
Ibrutinib + Phenformin = compound: C=CC(=O)N1CCC[C@@H](n2nc(-c3ccc(Oc4ccccc4)cc3)c3c(N)ncnc32)C1 [Ibrutinib] + N=C(N)NC(=N)NCCc1ccccc1 [Phenformin] (partner 250 µM)
Summary of the method: (§1)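 Lung cancer cell lines were pin-tool dosed in 1536-well plates on the day after seeding, with either a lone drug or a fixed anchor-drug dose plus five library-drug doses (not always all listed) in √10 steps. Nuclei were counted on 4× images after 5 days. Relative viability is the ratio of treated-well to vehicle-well nuclei counts, with each value a median of duplicate plates.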

BMX-IN-1 + Trametinib = compound: C=CC(=O)Nc1cc(-n2c(=O)ccc3cnc4ccc(-c5ccc(NS(C)(=O)=O)cc5)cc4c32)ccc1C [BMX-IN-1] + CC(=O)Nc1cccc(-n2c(=O)n(C3CC3)c(=O)c3c(Nc4ccc(I)cc4F)n(C)c(=O)c(C)c32)c1 [Trametinib] (partner 0.02 µM)
Summary of the method: as §1

BMX-IN-1 + Alpelisib = compound: C=CC(=O)Nc1cc(-n2c(=O)ccc3cnc4ccc(-c5ccc(NS(C)(=O)=O)cc5)cc4c32)ccc1C [BMX-IN-1] + Cc1nc(NC(=O)N2CCC[C@H]2C(N)=O)sc1-c1ccnc(C(C)(C)C(F)(F)F)c1 [Alpelisib] (partner 2 µM)
Summary of the method: as §1

PAC-1 + Dasatinib = compound: C=CCc1cccc(/C=N/NC(=O)CN2CCN(Cc3ccccc3)CC2)c1O [PAC-1] + Cc1nc(Nc2ncc(C(=O)Nc3c(C)cccc3Cl)s2)cc(N2CCN(CCO)CC2)n1 [Dasatinib] (partner 0.075 µM)
Summary of the method: as §1

Row | Cell Line | relative viability (Ibrutinib + Phenformin; first compound 0.005 µM) | relative viability (Ibrutinib + Phenformin; first compound 0.01581 µM) | relative viability (Ibrutinib + Phenformin; first compound 0.05 µM) | relative viability (Ibrutinib + Phenformin; first compound 0.1581 µM) | relative viability (Ibrutinib + Phenformin; first compound 0.5 µM) | relative viability (BMX-IN-1 + Trametinib; first compound 0.02 µM) | relative viability (BMX-IN-1 + Trametinib; first compound 0.2 µM) | relative viability (BMX-IN-1 + Trametinib; first compound 0.6325 µM) | relative viability (BMX-IN-1 + Trametinib; first compound 2 µM) | relative viability (BMX-IN-1 + Alpelisib; first compound 0.02 µM) | relative viability (BMX-IN-1 + Alpelisib; first compound 0.2 µM) | relative viability (BMX-IN-1 + Alpelisib; first compound 0.6325 µM) | relative viability (BMX-IN-1 + Alpelisib; first compound 2 µM) | relative viability (PAC-1 + Dasatinib; first compound 0.02 µM) | relative viability (PAC-1 + Dasatinib; first compound 0.06325 µM) | relative viability (PAC-1 + Dasatinib; first compound 0.2 µM) | relative viability (PAC-1 + Dasatinib; first compound 2 µM)
1 | 201T | 0.449 | 0.443 | 0.442 | 0.429 | 0.412 | 0.703 | 0.733 | 0.744 | 0.694 | 1.02 | 1.02 | 0.987 | 1.02 | 0.571 | 0.595 | 0.589 | 0.58
2 | A549 | 0.21 | 0.135 | 0.159 | 0.163 | 0.152 |  |  |  |  | 0.94 | 0.716 | 0.813 | 0.762 |  |  |  | 
3 | A-427 | 0.307 | 0.351 | 0.316 | 0.27 | 0.3 | 0.691 | 0.727 | 0.79 | 0.722 | 1.04 | 1.11 | 1.04 | 1.14 | 0.77 | 0.665 | 0.666 | 0.697
4 | ABC-1 | 0.185 | 0.271 | 0.214 | 0.24 | 0.29 |  |  |  |  | 0.98 | 1.2 | 1.22 | 1.12 | 0.501 | 0.495 | 0.541 | 0.484
5 | BEN |  | 0.23 | 0.282 | 0.283 | 0.247 | 1.15 | 0.909 | 0.96 | 1.03 | 1.22 | 1.32 | 0.938 | 1.04 | 0.272 | 0.366 | 0.318 | 0.327
6 | CAL-12T | 0.546 | 0.447 | 0.362 | 0.651 | 0.35 | 0.342 | 0.318 | 0.31 | 0.36 | 1.74 | 1.27 | 1.04 | 1.32 | 0.288 | 0.393 | 0.459 | 0.404
7 | COR-L23 | 0.491 | 0.408 | 0.454 | 0.472 | 0.445 | 0.71 | 0.695 | 0.623 | 0.662 | 0.95 | 0.962 | 0.926 | 0.921 | 0.472 | 0.48 | 0.453 | 0.506
8 | COR-L 105 | 0.455 | 0.348 | 0.406 | 0.531 | 0.242 | 0.427 | 0.444 | 0.422 | 0.403 | 1.33 | 1.05 | 1.11 | 0.886 | 0.361 | 0.365 | 0.34 | 0.412
9 | Calu-6 |  |  |  |  |  |  |  |  |  | 0.974 | 1.13 | 1.15 | 0.919 |  |  |  | 
10 | ChaGo-K-1 | 0.543 | 0.462 | 0.433 | 0.407 | 0.494 | 0.735 | 0.986 | 0.891 | 0.91 |  |  |  |  | 0.653 | 0.647 | 0.534 | 0.619
11 | EBC-1 |  |  |  |  |  |  |  |  |  | 0.701 | 0.698 | 1.01 | 0.812 |  |  |  | 
12 | EKVX | 0.224 | 0.245 | 0.226 | 0.227 | 0.13 | 0.308 | 0.39 | 0.375 | 0.369 | 0.942 | 0.965 | 0.951 | 0.828 | 0.587 | 0.606 | 0.569 | 0.515
13 | EMC-BAC-2 | 0.465 | 0.509 | 0.53 | 0.571 | 0.507 | 0.827 | 0.906 | 0.96 | 1.04 | 0.891 | 0.873 | 0.783 | 0.625 | 0.388 | 0.303 | 0.346 | 0.326
14 | EPLC-272H | 0.314 | 0.286 | 0.283 | 0.274 | 0.207 | 0.27 | 0.257 | 0.311 | 0.318 | 0.973 | 1.15 | 1.08 | 0.94 | 0.447 | 0.365 | 0.387 | 0.268
15 | H3255 | 0.364 | 0.344 | 0.382 | 0.375 | 0.233 | 0.725 | 0.624 | 0.599 | 0.672 | 0.798 | 0.657 | 0.815 | 0.712 | 0.361 | 0.288 | 0.284 | 0.33
16 | HARA | 0.445 | 0.377 | 0.357 | 0.406 | 0.331 | 0.907 | 0.449 | 0.492 | 0.654 | 1.04 | 0.883 | 0.787 | 0.846 | 0.336 | 0.251 | 0.26 | 0.26
17 | HCC-15 | 0.571 | 0.477 | 0.524 | 0.408 | 0.53 | 0.268 | 0.411 | 0.388 | 0.396 | 1.08 | 1.02 | 0.924 | 0.882 | 0.631 | 0.675 | 0.606 | 0.619
18 | HCC-44 | 0.138 | 0.182 | 0.148 | 0.11 | 0.232 | 1.11 | 1.08 | 1.14 | 1.03 | 0.869 | 0.905 | 1.01 | 0.794 |  |  |  | 
19 | HCC-78 | 0.541 | 0.787 | 0.575 | 0.616 | 0.559 | 0.801 | 0.967 | 0.717 | 0.896 | 0.355 | 0.319 | 0.391 | 0.175 | 0.335 | 0.331 | 0.404 | 0.394
20 | HCC-366 | 0.63 | 0.595 | 0.593 | 0.543 | 0.665 | 0.36 | 0.352 | 0.376 | 0.361 | 0.704 | 0.575 | 0.412 | 0.354 | 0.618 | 0.558 | 0.617 | 0.733
21 | HCC-827 | 0.408 | 0.358 | 0.304 | 0.431 | 0.181 | 0.558 | 0.537 | 0.475 | 0.518 | 0.95 | 0.889 | 1.05 | 0.946 | 0.277 | 0.325 | 0.297 | 0.293
